Data on 24 compounds can be found in patent US10981894B2, “Melanocortin subtype-2 receptor (MC2R) antagonists and uses thereof” (Crinetics Pharmaceuticals, Inc., priority 2018, dated 2021).

The structures appear in SMILES notation. pKi: −log10 of the molar value.

Chain of hMC2 receptor (Q01718 whole entry): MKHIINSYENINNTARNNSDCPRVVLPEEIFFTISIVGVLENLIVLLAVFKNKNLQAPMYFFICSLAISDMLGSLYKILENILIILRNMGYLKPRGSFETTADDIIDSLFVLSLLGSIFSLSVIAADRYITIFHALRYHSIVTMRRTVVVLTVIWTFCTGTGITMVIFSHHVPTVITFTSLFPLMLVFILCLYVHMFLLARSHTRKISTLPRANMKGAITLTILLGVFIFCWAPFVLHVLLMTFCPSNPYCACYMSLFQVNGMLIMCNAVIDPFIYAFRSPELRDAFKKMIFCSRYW
Chain of hMC2 receptor (Q8TCY5 whole entry partner): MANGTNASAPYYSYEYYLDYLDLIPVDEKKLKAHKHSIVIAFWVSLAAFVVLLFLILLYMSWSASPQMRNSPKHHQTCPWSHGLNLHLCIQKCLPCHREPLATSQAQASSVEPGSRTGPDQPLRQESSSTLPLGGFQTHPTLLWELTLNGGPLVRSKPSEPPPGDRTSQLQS

This assay concerns the target hMC2 receptor (Homo sapiens, UniProt Q01718). Put plainly: hMC2 membrane binding assay ([125I]ACTH (1-39) Tyr23, SPA). Further details: scale not given here. To be noted: crude hMC2R membranes from CRE-bla-CHO-K1 cells expressing hMC2 receptor and hMRAP; [125I]ACTH (1-39) Tyr23 0.2 nM; 1.5 hours at room temperature; read-out: MC2R binding potency. The method, boiled down: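 CRE-bla-CHO-K1 membranes co-expressing hMC2 receptor and hMRAP, preincubated with WGA PVT SPA beads in pH 7.4 HEPES/MgCl2/CaCl2/0.2% BSA buffer. Compounds (typically 0–10,000 nM final) compete with 0.2 nM [125I]ACTH(1-39) Tyr23 for 1.5 h at room temperature. SPA counts give Ki by non-linear regression.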
With `CC[C@@H]1CN(C(=O)c2ccc(C(F)(F)F)cc2Cl)CCN1c1ccc(-c2ccccc2OC)cc1C(=O)NCCN` [Compound 1-2, N-(2-aminoethyl)-4-[(2R)-4-[2-chloro-4-(trifluoromethyl)benzoyl]-2-ethylpiperazin-1-yl]-2′-methoxy-[1,1′-biphenyl]-3-carboxamide], the pKi was > 8.00. The same measure for `CCOc1ncccc1-c1ccc(N2CCN(C(=O)c3ccc(Cl)cc3C(F)(F)F)C[C@H]2CC)c(C(=O)N[C@H]2CCN(C)C2)c1F` [Compound 1-201, 6-[(2R)-4-[4-chloro-2-(trifluoromethyl)benzoyl]-2-ethylpiperazin-1-yl]-3-(2-ethoxypyridin-3-yl)-2-fluoro-N-[(3S)-1-methylpyrrolidin-3-yl]benzamide]: > 8.00; for `CCOc1ncccc1-c1ccc(N2CCN(C(=O)C3(C(F)(F)F)CCCC3)C[C@H]2CC)c(C(=O)NC[C@H]2CCCN2)n1` [Compound 1-324, 2′-ethoxy-5-[(2R)-2-ethyl-4-[1-(trifluoromethyl)cyclopentanecarbonyl]piperazin-1-yl]-N-{[(2R)-pyrrolidin-2-yl]methyl}-[2,3′-bipyridine]-6-carboxamide]: > 8.00. The same measure for `CCOc1ncccc1-c1ccc(N2CCN(C(=O)OC(C(C)(C)C)C(F)(F)F)C[C@H]2CC)c(C(=O)N[C@@H]2CCNC2)n1` (stereo partly drawn) [Compound 1-312, 1,1,1-trifluoro-3,3-dimethylbutan-2-yl (3R)-4-(2′-ethoxy-6-{[(3R)-pyrrolidin-3-yl]carbamoyl}-[2,3′-bipyridin]-5-yl)-3-ethylpiperazine-1-carboxylate]: > 8.00; for `CCOc1ncccc1-c1ccc(N2CCN(C(=O)c3ccc(Cl)cc3C(F)(F)F)C[C@H]2CC)c(C(=O)NCC2CNC2)n1` [Compound 1-222, N-[(azetidin-3-yl)methyl]-5-[(2R)-4-[4-chloro-2-(trifluoromethyl)benzoyl]-2-ethylpiperazin-1-yl]-2′-ethoxy-[2,3′-bipyridine]-6-carboxamide]: > 8.00; for `CCOc1ncccc1-c1ccc(N2CCN(C(=O)C3(C(F)(F)F)CCCC3)C[C@H]2CC)c(C(=O)NC[C@@H]2CCCN2)n1` [Compound 1-325, 2′-ethoxy-5-[(2R)-2-ethyl-4-[1-(trifluoromethyl)cyclopentanecarbonyl]piperazin-1-yl]-N-{[(2S)-pyrrolidin-2-yl]methyl}-[2,3′-bipyridine]-6-carboxamide]: > 8.00.

As to `CCOc1ncccc1-c1ccc(N2CCN(C(=O)c3ccc(Cl)cc3C(F)(F)F)C[C@H]2CC)c(C(=O)NC2CNC2)n1` [Compound 1-211, N-(azetidin-3-yl)-5-[(2R)-4-[4-chloro-2-(trifluoromethyl)benzoyl]-2-ethylpiperazin-1-yl]-2′-ethoxy-[2,3′-bipyridine]-6-carboxamide], the pKi was > 8.00. For `CCOc1ccccc1-c1ccc(N2CCN(C(=O)c3ccc(F)cc3C(F)F)C[C@H]2CC)c(C(=O)N[C@@H]2CCNC2)n1` [Compound 1-292, 3-[(2R)-4-[2-(difluoromethyl)-4-fluorobenzoyl]-2-ethylpiperazin-1-yl]-6-(2-ethoxyphenyl)-N-[(3R)-pyrrolidin-3-yl]pyridine-2-carboxamide] the value was > 8.00; for `CCOc1ncccc1-c1ccc(N2CCN(C(=O)c3ccc(Cl)cc3N3CC[C@H](CN)C3)C[C@H]2CC)c(C(=O)NCCN)c1` [Compound 1-40, N-(2-aminoethyl)-2-[(2R)-4-{2-[(3R)-3-(aminomethyl)pyrrolidin-1-yl]-4-chlorobenzoyl}-2-ethylpiperazin-1-yl]-5-(2-ethoxypyridin-3-yl)benzamide], > 8.00; for `CCOc1ncccc1-c1ccc(N2CCN(C(=O)c3ccc(OC)nc3C(F)(F)F)C[C@H]2CC)c(C(=O)NCCNC)c1F` [Compound 1-164, 3-(2-ethoxypyridin-3-yl)-6-[(2R)-2-ethyl-4-[6-methoxy-2-(trifluoromethyl)pyridine-3-carbonyl]piperazin-1-yl]-2-fluoro-N-[2-(methylamino)ethyl]benzamide], > 8.00.

`CCOc1ncccc1-c1ccc(N2CCN(C(=O)N3CCc4cccc(C#N)c43)C[C@H]2CC)c(C(=O)NC2CN(C)C2)n1` [Compound 1-409, 5-[(2R)-4-(7-cyano-2,3-dihydro-1H-indole-1-carbonyl)-2-ethylpiperazin-1-yl]-2′-ethoxy-N-(1-methylazetidin-3-yl)-[2,3′-bipyridine]-6-carboxamide]: the pKi was > 8.00.

`CCOc1ncccc1-c1ccc(N2CCN(C(=O)c3ccc(Cl)cc3N3CCNCC3)C[C@H]2CC)c(C(=O)N[C@@H]2CCNC2)c1` [Compound 1-90, 2-[(2R)-4-[4-chloro-2-(piperazin-1-yl)benzoyl]-2-ethylpiperazin-1-yl]-5-(2-ethoxypyridin-3-yl)-N-[(3R)-pyrrolidin-3-yl]benzamide]: the pKi is > 8.00. For `CCOc1ncccc1-c1ccc(N2CCN(C(=O)c3ccc(Cl)cc3C(F)(F)F)C[C@H]2CC)c(C(=O)NCCN(C)C)c1F` [Compound 1-173, 6-[(2R)-4-[4-chloro-2-(trifluoromethyl)benzoyl]-2-ethylpiperazin-1-yl]-N-[2-(dimethylamino)ethyl]-3-(2-ethoxypyridin-3-yl)-2-fluorobenzamide] the value was > 8.00; for `CCOc1ncccc1-c1ccc(N2CCN(C(=O)c3ccc(Cl)cc3C(F)(F)F)C[C@H]2CC)c(C(=O)NCCc2ncc[nH]2)c1F` [Compound 1-116, 6-[(2R)-4-[4-chloro-2-(trifluoromethyl)benzoyl]-2-ethylpiperazin-1-yl]-3-(2-ethoxypyridin-3-yl)-2-fluoro-N-[2-(1H-imidazol-2-yl)ethyl]benzamide], > 8.00. The same measure for `CCOc1ncccc1-c1ccc(N2CCN(C(=O)c3ccc(C)cc3Cl)C[C@H]2CC)c(C(=O)NCCNC)c1F` [Compound 1-113, 6-[(2R)-4-(2-chloro-4-methylbenzoyl)-2-ethylpiperazin-1-yl]-3-(2-ethoxypyridin-3-yl)-2-fluoro-N-[2-(methylamino)ethyl]benzamide]: > 8.00.

For the compound `CCOc1ccccc1-c1ccc(N2CCN(C(=O)c3ccc(Cl)cc3C(F)F)C[C@H]2CC)c(C(=O)N[C@@H]2CCN(C)C2)n1` [Compound 1-287, 3-[(2R)-4-[4-chloro-2-(difluoromethyl)benzoyl]-2-ethylpiperazin-1-yl]-6-(2-ethoxyphenyl)-N-[(3R)-1-methylpyrrolidin-3-yl]pyridine-2-carboxamide], the pKi is > 8.00.

As for `CCOc1ncccc1-c1ccc(N2CCN(C(=O)c3ccc(OC)nc3C(F)(F)F)C[C@H]2CC)c(C(=O)N[C@@H]2CCNC2)n1` [Compound 1-240, 2′-ethoxy-5-[(2R)-2-ethyl-4-[6-methoxy-2-(trifluoromethyl)pyridine-3-carbonyl]piperazin-1-yl]-N-[(3R)-pyrrolidin-3-yl]-[2,3′-bipyridine]-6-carboxamide], the pKi was > 8.00. On to `CCOc1ccccc1-c1ccc(N2CCN(C(=O)C3(C(F)(F)F)CCCC3)C[C@H]2CC)c(C(=O)N[C@@H]2CCNC2)n1` [Compound 1-304, 6-(2-ethoxyphenyl)-3-[(2R)-2-ethyl-4-[1-(trifluoromethyl)cyclopentanecarbonyl]piperazin-1-yl]-N-[(3R)-pyrrolidin-3-yl]pyridine-2-carboxamide], for which the pKi is > 8.00. On to `CCOc1ccccc1-c1ccc(N2CCN(C(=O)c3c(F)cc(C)cc3-c3ccc(CN)cc3)C[C@H]2CC)c(C(=O)NCCN)c1` [Compound 1-27, N-(2-aminoethyl)-4-[(2R)-4-[4′-(aminomethyl)-3-fluoro-5-methyl-[1,1′-biphenyl]-2-carbonyl]-2-ethylpiperazin-1-yl]-2′-ethoxy-[1,1′-biphenyl]-3-carboxamide], for which the pKi was > 8.00. The same measure for `CCOc1ncccc1-c1ccc(N2CCN(C(=O)c3ccc(F)cc3C(F)(F)F)C[C@H]2CC)c(C(=O)N[C@@H]2CCNC2)c1F` [Compound 1-111, 3-(2-ethoxypyridin-3-yl)-6-[(2R)-2-ethyl-4-[4-fluoro-2-(trifluoromethyl)benzoyl]piperazin-1-yl]-2-fluoro-N-[(3R)-pyrrolidin-3-yl]benzamide]: > 8.00; for `CCOc1ncccc1-c1ccc(N2CCN(C(=O)c3ccc(Cl)cc3Cl)C[C@H]2CC)c(C(=O)NCC2=NCCN2)c1F` [Compound 1-178, 6-[(2R)-4-(2,4-dichlorobenzoyl)-2-ethylpiperazin-1-yl]-N-[(4,5-dihydro-1H-imidazol-2-yl)methyl]-3-(2-ethoxypyridin-3-yl)-2-fluorobenzamide]: > 8.00; for `CCOc1ncccc1-c1ccc(N2CCN(C(=O)C3(C(F)(F)F)CCCCC3)C[C@H]2CC)c(C(=O)N[C@@H]2CCNC2)n1` [Compound 1-273, 2′-ethoxy-5-[(2R)-2-ethyl-4-[1-(trifluoromethyl)cyclohexanecarbonyl]piperazin-1-yl]-N-[(3R)-pyrrolidin-3-yl]-[2,3′-bipyridine]-6-carboxamide]: > 8.00.

Take `CCOc1ncccc1-c1ccc(N2CCN(C(=O)c3ccc(Cl)cc3C(F)(F)F)C[C@H]2CC)c(C(=O)N[C@H]2CCNC2)c1F` [Compound 1-200, 6-[(2R)-4-[4-chloro-2-(trifluoromethyl)benzoyl]-2-ethylpiperazin-1-yl]-3-(2-ethoxypyridin-3-yl)-2-fluoro-N-[(3S)-pyrrolidin-3-yl]benzamide]: the pKi is > 8.00.

On to `CCOc1ccccc1-c1ccc(N2CCN(C(=O)N3CCc4cc(F)cc(C#N)c43)C[C@H]2CC)c(C(=O)NC2CN(C)C2)n1` [Compound 1-424, 3-[(2R)-4-(7-cyano-5-fluoro-2,3-dihydro-1H-indole-1-carbonyl)-2-ethylpiperazin-1-yl]-6-(2-ethoxyphenyl)-N-(1-methylazetidin-3-yl)pyridine-2-carboxamide], for which the pKi is > 8.00.
